Test results as given in patent US20220323454A1, “PHENOTHIAZINES AND THEIR DERIVATIVES FOR USE AS A MEDICAMENT” (Guangzhou Virotech Pharmaceutical Co., Ltd., priority 2019, published 2022).

Assays:
[1] = system: Jurkat-PD-1-NFAT-LUC cells; assay: NFAT-luciferase activity in Jurkat-PD-1-NFAT-LUC cells co-cultured with Raji-PD-L1 cells; assay type: cell-based, human; details: 4.86 μM MTC or LMT added with Raji-PD-L1 cells, 6 h co-culture; FIG. 1E
Method: (1) Jurkat cells were used to construct a stable cell line expressing PD-1. The pCAGin-PD-1 plasmid was electroporated into Jurkat cells, which were then screened with 900 μg/mL G418 antibiotic and flow-sorted for single clones. Jurkat-PD-1 cells were then electroporated into a DNA fragment that controls the luciferase gene through the NFAT-binding site (referred to as NFAT-LUC). A single clone was then flow-sorted and named clone 5. Using this cell, the expression level of IL-2 can be measured by the activity of luciferase. Raji cells stably expressing PD-L1 were constructed, and the pCDNA-PD-L1 plasmid was electroporated into the Raji cells, followed by screening with 2 μg/mL puromycin, and then flow-sorted single clones and named clone 1.
(4) A 96-well plate was coated with 10 μg/mL CD3 antibody/10 μg/mL CD28 antibody overnight at 4° C., and excess antibody then washed off with PBS. Raji cells or Raji-PD-L1 cells were co-cultured with Jurkat-PD-1-NFAT-LUC cells at a ratio of 1:1, or to a mixture of Raji-PD-L1 cells and Jurkat-PD-1-NFAT-LUC cells at a ratio of 1:1 was added 4.86 μM MTC or LMT. Luciferase substrate was added after 6h co-culture and the luciferase activity was measured by a microplate reader.

OT-1 CTL cells [2] = assay: CTL cell division under PD-L1 protein inhibition (CFSE, flow cytometry); assay type: cell-based; details: 100 nM MTC; 10 nM SIINFEKL, 10 nM IL-2, 10 μg/mL mouse PD-L1 protein; 24, 48, 72 hours; FIG. 2B
Method: (§1) (1) Preparation of CTL cells: The spleens of OT1 mice were obtained, ground and added with red blood cell lysate, to prepare single-cell suspension. The culture medium was 1640+10% FBS+50 μM βME+10 nM IL-2. Cell density was adjusted to about 2-4 million/mL. The cells were added with 10 nM OVA257-264, and cultured in a cell incubator at 37° C., 5% CO2. From the day of CTL preparation, cells were stained with FITC-labeled PD-1 antibody every day, and the changes of PD-1 expression on the cell surfaces were detected by flow cytometry.
(2) The CTL cells were labeled with 5 nM CFSE, stimulated by 10 nM SIINFEKL and 10 nM IL-2, and added with 10 μg/mL mouse PD-L1 protein. The experimental group was also added with 100 nM MTC and stimulated for 24, 48, and 72 hours. The effects of PD-L1 protein and MTC on CTL cell division were observed by flow cytometry.

OT-1 CTL cells [3] = assay: Secretion of CTL effector molecules on co-culture with EG7-PD-L1 target cells (flow cytometry); assay type: cell-based, mouse; details: CTL : EG7-PD-L1 1:1, GolgiPlug 6 hours; FIG. 3
Method: as §1
(3) CTL cells and target cells EG7 (EL4 lymphoma cells expressing chicken ovalbumin) were mixed and cultured at a concentration of 1:1. The cell mixture was treated with 1 μM protein transport inhibitor GolgiPlug™ for 6 hours, and then fixed by 4% paraformaldehyde. The cells were then treated with 0.1% saponin, and stained with antibodies against each effector molecule. The effect of MTC on the secretion of CTL effector molecules was detected by flow cytometry.

B16-OVA cells = assay: CTL killing of IFN-γ-treated B16-OVA melanoma cells (microscope); assay type: cell-based, mouse
Method: (3) Melanoma cells B16-OVA (B16 cells expressing OVA gene) were treated with 10 μg/mL IFN-γ for 24 hours, and then mixed with CTL cells at a ratio of 1:5 and co-cultured for 4 hours. Cells were treated with 1 μM MTC. B16-OVA cells treated with DMSO or MTC only (without IFN-γ treatment) were used as control. The apoptosis of B16-OVA was observed by microscope, and then the killing ability of CTL cells to target cells was assessed.
(4) The B16-OVA group received no treatment, and the medium was replaced with water in the Water group. The other groups were treated with 10 μg/mL IFNγ. After 24 hours, except for the B16-OVA group, each group was co-cultured with CTL cells at a ratio of 1:5 for 4 hours, and treated with MTC […], LMT (1 μM) or anti-PD1 (PD-1 antibody, 10 μg/mL, Nivolumab, BMS). The death of B16-OVA in each group was observed by microscope, and then the killing ability of CTL cells to target cells was assessed. […] The IFN-γ+MTC group and the IFN-γ+LMT group were treated with 10 μg/mL IFN-γ for 24 hours. The cells were then mixed with CTL cells at a ratio of 1:5, co-cultured for 4 hours and treated with MTC (1 μM) or LMT (1 μM). The MTC and LMT groups were treated with MTC (10 μM) or LMT (10 μM) only. The killing ability against target cells was observed.

PD-1 recruitment of SHP2 [4] = molecular target: T1, PD-1 recruitment of SHP2 (Homo sapiens, UniProt Q06124+Q15116); assay: Confocal localization of PD-1-GFP and SHP2-mCherry in 293T cells; assay type: cell-based; details: 293T stable cell line, MTC 6 hours, then 1 μM PVD 5 minutes
T1 construct: expressed in transfected cells
Method: (2) Fusion genes PD-1-GFP and SHP2-mCherry were transfected into 293T cells with liposomes to construct a stable cell line. The cells were added with MTC at different concentrations, cultured for 6 hours, and then treated with 1 μM PVD (a dephosphorylase inhibitor) for 5 minutes. Cells were fixed with 4% paraformaldehyde and the effect of MTC on the localization of GFP and mCherry, namely PD-1 and SHP2, was observed under Confocal.

PD-1 recruitment of SHP2 [5] = molecular target: T1, PD-1 recruitment of SHP2; assay: Co-IP of PD-1-Flag and SHP2 in 293T cells; assay type: cell-based; details: 293T co-transfected with PD-1-Flag and SHP2 plasmids, MTC at different concentrations; FIG. 7C
Method: (3) The PD-1-Flag plasmid and SHP2 plasmid were co-transfected in 293T cells, and the cells were then treated with MTC at different concentrations. The ability of PD-1 to recruit SHP2 was detected by Co-IP.

T1 sequence (Q15116 25-288): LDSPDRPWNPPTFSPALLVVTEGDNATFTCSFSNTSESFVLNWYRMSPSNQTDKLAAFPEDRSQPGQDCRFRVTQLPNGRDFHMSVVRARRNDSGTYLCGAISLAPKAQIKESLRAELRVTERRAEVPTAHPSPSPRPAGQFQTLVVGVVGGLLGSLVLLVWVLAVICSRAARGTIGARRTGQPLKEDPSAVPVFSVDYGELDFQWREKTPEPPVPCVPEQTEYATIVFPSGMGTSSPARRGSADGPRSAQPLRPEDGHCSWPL
T1 sequence (Q06124 whole entry): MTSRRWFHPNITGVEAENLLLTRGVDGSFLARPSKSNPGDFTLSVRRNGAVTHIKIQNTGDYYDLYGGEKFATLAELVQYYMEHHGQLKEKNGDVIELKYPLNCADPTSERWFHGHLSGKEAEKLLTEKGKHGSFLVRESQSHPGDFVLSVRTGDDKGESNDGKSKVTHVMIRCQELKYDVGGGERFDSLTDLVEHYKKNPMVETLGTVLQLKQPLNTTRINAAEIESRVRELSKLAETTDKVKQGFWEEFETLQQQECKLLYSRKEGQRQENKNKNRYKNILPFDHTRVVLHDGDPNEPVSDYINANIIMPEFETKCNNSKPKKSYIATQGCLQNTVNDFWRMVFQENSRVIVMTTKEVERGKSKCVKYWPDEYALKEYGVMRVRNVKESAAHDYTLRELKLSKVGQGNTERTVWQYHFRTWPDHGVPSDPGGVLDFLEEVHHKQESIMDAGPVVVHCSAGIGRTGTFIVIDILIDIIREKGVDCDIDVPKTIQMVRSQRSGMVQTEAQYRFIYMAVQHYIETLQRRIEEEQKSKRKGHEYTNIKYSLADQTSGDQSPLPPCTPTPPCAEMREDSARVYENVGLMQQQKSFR

Structure (SMILES): CN(C)c1ccc2nc3ccc(N(C)C)cc3[s+]c2c1 [MTC, 3,7-bis(dimethylamino)-phenothiazine-5-ium chloride]
- luciferase activity [1]: increased dramatically
- CTL cell division inhibited by PD-L1 protein (OT-1 CTL cells [2]): reversed the inhibition
- secretion of Granzyme B in CTL cells (OT-1 CTL cells [3]): increased sharply
- secretion of IFNγ in CTL cells (OT-1 CTL cells [3]): increased sharply
- secretion of IL-2 in CTL cells (OT-1 CTL cells [3]): increased sharply
- secretion of perforin in CTL cells (OT-1 CTL cells [3]): increased sharply
- killing effects of CTL cells to B16-OVA cells (B16-OVA cells; B16-OVA treated with 10 μg/mL IFNγ 24 hours, B16-OVA : CTL 1:5, 4 hours, MTC (1 µM), LMT (1 μM), FIGS. 4C and 4D): significantly enhanced
- combined killing effect with CTL cells on B16-OVA compared with the anti-PD-1 group (B16-OVA cells; MTC (1 µM) or LMT (1 μM) vs anti-PD1 10 μg/mL, FIG. 4D): significantly stronger than that of the anti-PD-1 group
- localization of SHP2-mCherry relative to PD-1-GFP (PD-1 recruitment of SHP2 [4]): dissociation of mCherry from the membrane
- binding of PD-1 to SHP2 (Co-IP) (PD-1 recruitment of SHP2 [5]): prevented the binding of PD-1 to SHP2
